Tests used:
gene encoding HSP47 = experiment: cDNA microarray, expression of the gene encoding HSP47 in human skin fibroblasts; type: cell-based; details: 4.5 μg/ml lupeol
Method: We used the “cDNA microarray” method for studying the effects of the product on the expression of the genes encoding structural and regulatory proteins of potential interest in skin physiology. Such an approach makes it possible to screen, in a single step, the effects of a product or of a treatment on gene expression in a given biological system and to obtain a signature of the effects of this treatment.
The product was applied to human skin fibroblasts cultured in MEM/M199 for 18 hours. The lupeol, in solution in ethanol was tested at the concentration of […], this concentration corresponds to a noncytotoxic dose.
The methodology used is that recommended by Clontech (Palo Alto, USA), and comprises: • a step consisting in extracting and purifying the total RNA; • a step consisting in purifying the messenger RNAs according to the AtlasPure protocol (Clontech); • labeling of the DNA probes with P^32 by reverse transcription; • purifying the label probes by exclusion column chromatography and verification of the quality and of the equivalence by liquid scintillation counting; and • hybridizing membranes (provided by the company Custom Atlas BIOAlternative) with the radiolabeled probes (68° C., overnight). Analysis of Results
The membranes were analyzed by direct quantification of the radioactivity of the spots using a Cyclone PhosphorImager (provided by the company Packard Instrument).
The results are expressed in relative units (RU, mean radioactivity of the points of the double spot corresponding to each gene, corrected for the background noise and for the differences in probe labeling intensity).
The results were analyzed case by case, label by label. Arbitrarily, the limit of significance was fixed at approximately +30% of the control for a stimulating effect, i.e. for an effect greater than 130%.

HSP47 heat shock protein = experiment: Western blotting, expression of the HSP47 protein in fibroblasts in culture; type: cell-based, human; details: dose of 20 μg/ml, incubation time of 48 h
Method: This technique consists of: • separation of the various proteins on a polyacrylamide gel under denaturing conditions; • transfer of the proteins onto a specific membrane (PVDF membrane, sold by the company Biorad); • labeling of the protein of interest with a specific antibody (HSP47, Stressgen); • “colorimetric” visualization (Sigma Fast, BCPIP/NBT). Various nontoxic concentrations (5, 10 and 20 μg/ml) and several incubation times (24 and 48 hours) were tested.

human skin fibroblasts = experiment: Cytotoxicity of test concentrations on fibroblasts in culture; type: cell-based
Normal fibroblasts (FS) [1] = experiment: Retraction of collagen lattice (free lattice), normal fibroblasts; type: cell-based
Method: (§1) Normal fibroblasts (FS), fibroblasts from a red or recent stretch mark (FVr) and fibroblasts from an older white stretch mark (FVb) were used in this study.
(§2) The fibroblasts were cultured in the absence or in the presence of lupeol at a concentration of 7 μg/ml.
(§3) The mechanism of retraction consists of the gathering up and rearranging of collagen by fibroblasts. The collagen polymerizes into fibrils to which the cells attach. The latter pull on the fibrils by virtue of their migratory movement, and thus reorganize the matrix. The diameter of the lattice is then decreased.
(§4) The mixture for producing lattices was poured into Petri dishes 50 mm in diameter. A gel formed in a few minutes at 37° C. The lattices were cultured with or without lupeol. The degree of retraction was determined by measuring the diameters of the lattices.

[2] = tested on: fibroblasts from a red or recent stretch mark (FVr); experiment: Retraction of collagen lattice (free lattice), red stretch mark fibroblasts; type: cell-based
Method: as §1, §2, §3, §4

[3] = tested on: fibroblasts from an older white stretch mark (FVb); experiment: Retraction of collagen lattice (free lattice), white stretch mark fibroblasts; type: cell-based
Method: as §1, §2, §3, §4

Normal fibroblasts (FS) [4] = experiment: Isometric forces developed by fibroblasts in lattice, normal fibroblasts; type: cell-based; details: FS + lupeol 7 μg/ml, at 7 hours of culture; FS alone 3583 V±1076
Excerpt: (§5) Normal fibroblasts (FS), fibroblasts from a red or recent stretch mark (FVr) and fibroblasts from an older white stretch mark (FVb) were used in this study. Mechanical inhibition of the retraction of the collagen gel in which fibroblasts are embedded is reflected by the generation of a force, called “retraction force” or “isometric force”. The lattices develop in a culture dish that consists of 8 rectangular cells. Placed into each one are 2 flexible silicon slides, the lower parts of which consist of grids to which the lattice attaches when it polymerizes. The lattice develops between 2 slides so as to give a rectangular shape that is slightly shrunken at the center. This shape in conventional mechanics is referred to as a “diabolo” shape. These slides have, in their upper part, a strain gauge system made of gold deposited at their surface. Under the influence of the retraction force developed by the fibroblasts, the silicon slides distort. This is reflected by a variation in the value of electrical resistance of the stress gauge, measured by means of a Wheatstone bridge. This variation indicates the force developed within the lattice, measured in real time via a PC acquisition card and suitable software. The mixture for producing the lattices was poured into the rectangular cells of the culture dish. A gel formed in a few minutes at 37° C. […] The isometric forces were measured for 48 hours.

[5] = tested on: fibroblasts from a red or recent stretch mark (FVr); experiment: Isometric forces developed by fibroblasts in lattice, red stretch mark fibroblasts; type: cell-based; details: FVr + lupeol 7 μg/ml, at 7 hours of culture; FVr alone 5547 V±808
Excerpt: as §5

[6] = tested on: fibroblasts from an older white stretch mark (FVb); experiment: Isometric forces developed by fibroblasts in lattice, white stretch mark fibroblasts; type: cell-based; details: FVb + lupeol 7 μg/ml, at 7 hours of culture; FVb alone 3999 V±881
Excerpt: as §5

[7] = tested on: FS, FVr and FVb fibroblasts; experiment: Demonstration of F actin (phalloidin-FITC) in fibroblasts cultured in lattice; type: cell-based; details: lupeol 7 μg/ml, lattices cultured for 5 days
Method: Normal fibroblasts (FS), fibroblasts from a red or recent stretch mark (FVr) and fibroblasts from an older white stretch mark (FVb) were used in this study. The fibroblasts were cultured in the absence or in the presence of lupeol at a concentration of 7 μg/ml. Fibroblasts are large (100 μm) cells with a fusiform or star-shaped morphology. Their cytoplasm contains an assembly of protein filaments (intermediate filaments, microtubules, actin filaments) which constitute the framework, or cytoskeleton, thereof in close relationship with the plasma membrane. 10% of all cell proteins consist of actin, polymerized in the form of filaments and bundles, which are often described as stress fibers. Actin filaments contribute to the contractile activity of the fibroblast by generating isometric forces. Several types of actin exist, including polymerized fibrillar actin (F actin) and a smooth muscle actin (αSM actin). Lattices pulled over a nylon ring were cultured for 5 days in Petri dishes (Ø 50 mm). They were fixed with 3% paraformaldehyde in PBS for 20 min, and then rinsed with PBS. They were subsequently incubated with PBS+0.1% Triton X100 in order to permeabilize the membrane. […] They were mounted between slide and cover slip with a drop of Vectashield, and were then observed under a fluorescence microscope, under UV.

[8] = tested on: FS, FVr and FVb fibroblasts; experiment: Demonstration of αSM actin (immunolabeling) in fibroblasts cultured in lattice; type: cell-based; details: lupeol 7 μg/ml, lattices cultured for 5 days
Method: Normal fibroblasts (FS), fibroblasts from a red or recent stretch mark (FVr) and fibroblasts from an older white stretch mark (FVb) were used in this study. The fibroblasts were cultured in the absence or in the presence of lupeol at a concentration of 7 μg/ml. Fibroblasts are large (100 μm) cells with a fusiform or star-shaped morphology. Their cytoplasm contains an assembly of protein filaments (intermediate filaments, microtubules, actin filaments) which constitute the framework, or cytoskeleton, thereof in close relationship with the plasma membrane. 10% of all cell proteins consist of actin, polymerized in the form of filaments and bundles, which are often described as stress fibers. Actin filaments contribute to the contractile activity of the fibroblast by generating isometric forces. Several types of actin exist, including polymerized fibrillar actin (F actin) and a smooth muscle actin (αSM actin). Lattices pulled over a nylon ring were cultured for 5 days in Petri dishes (Ø 50 mm). They were fixed with 3% paraformaldehyde in PBS for 20 min, and then rinsed with PBS. They were subsequently incubated with PBS+0.1% Triton X100 so as to permeabilize the membrane with respect to antibodies, and then with 3% H2O2 in order to eliminate endogenous peroxidases. […] was blocked with 3% BSA+10% sheep serum in PBS. […]

C=C(C)[C@@H]1CC[C@]2(C)CC[C@]3(C)[C@H](CC[C@@H]4[C@@]5(C)CC[C@H](O)C(C)(C)[C@@H]5CC[C@]43C)[C@@H]12 [lupeol, Lupeol]
HSP47 gene expression, % of the control (gene encoding HSP47; 18 hours, human skin fibroblasts): 129 % of the control
HSP47 gene expression, relative units (RU) (gene encoding HSP47; 18 hours, human skin fibroblasts, control cells 28.2 RU): 36.4 RU
regulation of the expression of the gene encoding HSP47 (gene encoding HSP47; incubation for 18 hours): positive regulation
HSP47 production (Western blotting) (HSP47 heat shock protein): stimulation of HSP47 production
cytotoxicity of the tested concentration (human skin fibroblasts; 4.5 μg, in solution in ethanol, human skin fibroblasts): noncytotoxic
toxicity of the tested concentrations (human skin fibroblasts; 5, 10 and 20 μg/ml, fibroblasts in culture): nontoxic
Gel diameter (Normal fibroblasts (FS) [1]; FS + lupeol 7 μg/ml, FS alone 2.5): 3
% decrease in retraction (Normal fibroblasts (FS) [1]; FS, lupeol 7 μg/ml, at D2): 20%
Gel diameter ([2]; FVr + lupeol 7 μg/ml, FVr alone 3): 3.6
% decrease in retraction ([2]; FVr, lupeol 7 μg/ml, at D2): 20%
Gel diameter ([3]; FVb + lupeol 7 μg/ml, FVb alone 2.9): 3.2
% decrease in retraction ([3]; FVb, lupeol 7 μg/ml, at D2): 10%
isometric forces (Normal fibroblasts (FS) [4]): 1325 V
isometric forces [5]: 2488 V
isometric forces [6]: 1365 V
F actin stress fibers and fibroblast morphology [7]: lose their F actin stress fibers and evolve toward a star-shaped form
labeling for αSM actin [8]: weak labeling for αSM actin

— patent US8747815B2, “Use of a cosmetic of pharmaceutical composition, comprising a lupeol-rich extract as an active ingredient for stimulating the synthesis of heat shock proteins” (Laboratoires Expanscience, priority 2003, dated 2014)
